Assay results as given in patent US11560360B2, “Therapeutic compounds” (ARIZONA BOARD OF REGENTS ON BEHALF OF ARIZONA STATE …, priority 2016, dated 2023).

What was measured:
FRDA lymphocytes [1] = test: Cytotoxicity assay in FRDA lymphocytes cultured in glucose free media (galactose), Live/Dead flow cytometry; type: cell-based
Method: Flow cytometric determination of cell viability by fluorescence labeling was used employing calcein acetoxy-methyl-ester and ethidium homodimer-1 as live and dead cell stains
Cytotoxicity was assessed by the dye exclusion method. Live cells have intact membranes, which exclude a variety of dyes that easily penetrate the damaged, permeable membranes of non-viable cells. Propidium iodide, a membrane impermeant dye, is generally excluded from viable cells, although it can enter non-viable cells and bind to double-stranded DNA by intercalating between base pairs. Compounds 1-5 were tested for their cytotoxicity in FRDA lymphocytes using FACS analysis with propidium iodide. The results are depicted in FIG. 2. From the results it is evident that cytotoxicity decreases with increasing lipophilicity in lower as well as higher concentrations for compounds 1-5.
Evaluation of compounds 1-5 for their cytotoxicity and their ability to function within the mitochondrial respiratory chain was carried out by incubation of the prepared compounds for 24 or 48 h with FRDA lymphocytes. A nutrient-sensitized screening strategy has been used by culturing FRDA cells in galactose as the sole sugar source which forces mammalian cells to rely on mitochondrial oxidative phosphorylation (OXPHOS) to produce their ATP; they also become more sensitive to mitochondrial respiratory chain inhibitors than cells grown in glucose medium. Compounds 1-5 were tested for their cytotoxicity in FRDA lymphocytes using a simultaneous staining with a two-color fluorescence assay, the Live/Dead® Viability/Cytotoxicity Kit (Molecular Probes). This assay is used to measure two recognized parameters of cell viability, intracellular esterase activity and plasma integrity. The membrane-impermeant DNA dye ethidium homodimer-1 (EthD-1) was used to identify dead cells whose plasma membrane integrity was disrupted. The membrane-permeant dye calcein-AM was used to label live cells. It penetrates into the cells where it is metabolized by cytoplasmic esterases and becomes a fluorescent but membrane-impermeant probe which is retained in viable cells. One mL of FRDA lymphocyte cells (5×10^5 cells) was plated in a 24-well plate in glucose free media (galactose 25 mM), treated with the test compounds and incubated at 37° C. for 24 h or 48 h in a humidified atmosphere containing 5% CO2 in air. Cells were collected by centrifugation at 300×g for 3 min and washed with phosphate buffered saline. […] The samples were analyzed immediately by flow cytometry (C6 Accuri, BD Biosciences, San Jose, Calif.), using a 488 nm excitation laser and the and the FL1-H channel 530±15 nm emission filter and the FL2-H channel 585±15 nm. For each analysis 10,000 events were recorded and analyzed using C6 Accuri software (BD Biosciences).

[2] = test system: mitochondrial inner membrane potential in FRDA lymphocytes; test: JC-1 mitochondrial membrane potential (Δψm) assay; type: cell-based, human; settings: 16 h pre-treatment, JC-1, FACS (FIG. 4)
Method: In each analysis, 10000 events were recorded. Depolarization with carbonyl cyanide p-(trifluoromethoxy) phenylhydrazone (FCCP), was used to serve as a positive control.
The ability of 1-5 to maintain mitochondrial membrane potential (ΔΨm) compared to the parent compound MV was studied. ΔΨm was determined using the cationic fluorescent dye 5, 5′, 6, 6′-tetrachloro-1, 1′, 3, 3′-tetraethylbenzimidazolyl carbocyanine iodide (JC-1), which is a lipophilic cation that selectively accumulates in mitochondria due to the negative potential across the inner mitochondrial membrane. The dye exists as a monomer at low concentrations giving a green fluorescence. […] Therefore, mitochondrial depolarization is indicated by a decrease in red/green fluorescence ratio. […]
The ability of the test compounds to depolarize or maintains mitochondrial inner membrane potential (Δψm) was assessed using the JC-1 probe. […] JC-1 is a dual stain, which can identify high membrane potential through J-aggregates (red fluorescence) and low membrane potential through J-monomers (green fluorescence). […] Cells were resuspended in phosphate buffered saline supplemented with 20 mM glucose and were analyzed immediately by FACS (C6 Accuri, BD Biosciences, San Jose, Calif.), using a 488 nm excitation laser and the FL1-H channel 530±15 nm emission filter and the FL2-H channel 585±15 nm. […]

FRDA lymphocytes [3] = test: Measurement of cellular ATP concentration (firefly luciferase); type: cell-based, human; settings: glucose free media (25 mM galactose), relative to untreated control (FIG. 6)
Method: Results are expressed as percentage of total ATP relative to untreated control.
ATP levels in FRDA lymphocytes were measured using firefly luciferase. The cells were grown on glucose-free media supplemented with galactose for 24 h prior to the addition of the test compounds. Since cells grown in galactose rely mostly on oxidative phosphorylation (OX-PHOS) to produce their ATP, they become more sensitive to mitochondrial respiratory chain inhibitors than cells grown in glucose medium.
Measurement of Cellular ATP Concentration
Total ATP levels in FRDA lymphocytes with or without partially blocking complex I activity with rotenone (5 nM) were measured using firefly luciferase as a means to measure ATP level. The cells were grown on glucose-free media supplemented with galactose. Since cells grown in galactose rely mostly on oxidative phosphorylation (OXPHOS) to produce their ATP, they become more sensitive to mitochondria respiratory chain inhibitors than cells grown in glucose medium. Briefly, lymphocytes (2×10^5 cell/mL) were plated (1 mL) in 24-well plates, treated with the test compounds, and then incubated at 37° C. for 48 h in a humidified atmosphere containing 5% CO2 in air. FRDA lymphocytes with partial inhibition of complex I, cells were preincubated with test compounds for overnight before rotenone (5 nM) treatment for 24 h. Cells in each well were mixed and transferred (100 μL) to 96-well microtiter black-walled cell culture plates (Costar, Corning, N.Y.). The total intracellular ATP level was measured in a luminator (Clarity™ luminescence microplate reader) using an ATP Bioluminescence Assay Kit (ViaLight®-Plus ATP monitoring reagent kit, Lonza) following the manufacturer's protocol. The total ATP level was expressed as a percentage of untreated control. Data are reported as the mean of at least three independent experiments.

Row | SMILES | cytotoxicity (FRDA lymphocytes [1]; FRDA lymphocytes on galactose for 48 h (FIG. 2)) | cytotoxicity (FRDA lymphocytes [1]; FRDA lymphocytes, 0.5-2.5 μM concentrations) | preservation of mitochondrial membrane potential (Δψm) [2] | cellular ATP levels (FRDA lymphocytes [3])
1 | CN(C)c1ccc2nc3ccc(=[N+](C)C)cc-3sc2c1 [MB, Methylene blue, reference compound] | cytotoxic | strong cytotoxicity | significantly depolarized Δψm | inhibited ATP production, especially at higher concentrations
2 | CN(C)c1ccc2nc3ccc(=O)cc-3sc2c1 [MV, Methylene violet, reference compound] | – | – | significantly depolarized Δψm | strongly reduces cellular ATP levels in a concentration dependent manner
